Laboratory results taken from paper PMC6472337, “L amino acid transporter structure and molecular bases for the asymmetry of substrate interaction” (Nature Communications, 2019).
Where “and” joins values, the source holds several entries; their conditions need not be identical. Equal entries are not always repeated. Where two headings read alike, the source gives them in different places.

What was measured:
BasC K154A mutant [1] = experiment: Thermostability-based L-alanine binding assay, K154A; design: species or system Carnobacterium sp AT7; settings: for Kd K154A binding curve, normalized signal: n=1-3
Protocol: GFP-fused BasC proteins purified in DM were incubated for 10 min at 4–60 °C (Y236F and K154A mutants) or 4–70 °C (wild-type). In total, 200 µl of 2 mg ml^−1 protein was used for each temperature point. Protein was then centrifuged at 186,000 × g for 30 min. […] Fractions (200 µl) were collected and measured for GFP fluorescence. The peak heights were normalized to those of samples incubated at 4 °C and were fit to the Hill equation using the GraphPad Prism 4 program (GraphPad Software Inc., San Diego, CA). Melting temperatures (Tm) were determined by fitting the curves to a sigmoidal dose-response equation, as previously described.
BasC-GFP proteins were then incubated at the calculated Tm for 10 min and centrifuged at 186,000 × g for 30 min. […] Binding affinities were determined by fitting the curves to a sigmoidal dose-response equation.

BasC K154A mutant [2] = experiment: [3H]L-alanine transport in BasC K154A proteoliposomes; type: biochemical, Carnobacterium sp AT7; design: V/[L-Ala]: unit not given here; settings: for V/[L-Ala]: Eadie-Hofstee, n=1-3 and mean
Protocol: BasC was overexpressed as a C-terminal fusion with GFP in E. coli BL21 Star (DE3) cells grown in LB media. Single point mutations (Supplementary Table 2) were introduced using the QuikChange site-directed mutagenesis kit (Stratagene, San Diego, CA). All mutations were verified by sequencing. Expression was induced with 0.1 mM isopropyl-ß-D-thiogalactopyranoside at 37 °C for 22 h. Cells were harvested at 5000 × g for 15 min at 4 °C and stored at −80 °C until use. Cell pellets were thawed and resuspended in 20 mM Tris-Base, 150 mM NaCl, pH 7.4. Cells were pelleted again at 5000 × g for 15 min at 4 °C, resuspended in lysis buffer (20 mM Tris-Base, 350 mM NaCl, pH 7.4, 1 mM pefabloc and complete mini protease inhibitor cocktail) (Roche, Basel Switzerland) and then broken using a Cell Disruptor (four cycles at 20,000 psi; Constant Systems Ltd., Daventry, UK). Cell debris was removed by centrifugation (15,000 × g for 1 h at 4 °C), and the supernatant was subjected to ultracentrifugation (200,000 × g for 2 h at 4 °C). The membrane pellet was resuspended in 20 mM Tris-Base, 150 mM NaCl, pH 7.4 and 10% glycerol at a protein concentration of 8–12 mg ml^−1, and then frozen in liquid nitrogen and stored at −80 °C until use.
BasC-GFP protein was reconstituted in E. coli polar lipids (Sigma-Aldrich, Madrid, Spain), as previously described. Lipids were dried under N2 and suspended in reconstitution buffer (20 mM Tris-Base, 150 mM NaCl, pH 7.4). The suspension was sonicated to clarity and purified BasC protein was added to reach the desired protein to lipid ratio of 1:100 (w:w). To destabilize the liposomes, 1.25% ß-D-octylglucoside was added and the mixture was incubated on ice with occasional agitation for 5 min. DDM and ß-D-octylglucoside were removed by dialysis for 40 h at 4 °C against 100 volumes of dialysis buffer. Proteoliposome (PL) suspensions were frozen in liquid N2 and stored at −80 °C until use.
For uptake experiments, the desired intraliposomal amino acid concentration was added to the PL suspension, which was then subjected to three freeze/thaw cycles. The extraliposomal amino acid content was then removed by ultracentrifugation (100,000 × g for 1 h at 4 °C) and PLs were resuspended to one-third of the initial volume with reconstitution buffer. Amino acid uptake assays were initiated after mixing 10 μl of cold PLs with 180 μl of transport buffer (20 mM Tris-Base, 150 mM NaCl, pH 7.4 plus 0.5–1 µCi/180 µl of radiolabeled L-amino acid (Perkin Elmer, Waltham, MA)) supplemented with the unlabeled amino acid to the desired concentration. This mixture was then incubated at room temperature for the indicated periods. […] Filters were then washed twice with 2 ml of stop buffer and dried, and the trapped radioactivity was counted. Transport measured in PLs containing no amino acid was subtracted from each data point to calculate the net exchange. […] BasC protein in PLs was determined by Coomassie blue staining in SDS-PAGE gels compared with known amounts of BasC in DDM micelles, determined by BCA assay (Pierce, Rockford, IL) and loaded in the same gel.

For `C[C@H](N)C(=O)O` [L-alanine], the Kd (BasC K154A mutant [1]; K154A, incubated at Tm, L-alanine 0–200 mM, read-out: KD (apparent, thermostability-based)) was 61.4 ± 7.3 mM, the “Kd K154A binding curve, normalized signal” value (BasC K154A mutant [1]; [L-Alanine] 6.25 mM) was 14.092 and 14.380 and 15.376 and the “Kd K154A binding curve, normalized signal” value (BasC K154A mutant [1]; [L-Alanine] 12.50 mM) was 15.845 and 21.520 and 16.121. For the same compound, the “Kd K154A binding curve, normalized signal” value (BasC K154A mutant [1]; [L-Alanine] 25 mM) was 35.951 and 29.574 and 35.797, the “Kd K154A binding curve, normalized signal” value (BasC K154A mutant [1]; [L-Alanine] 50 mM) was 50.837 and 57.901 and 51.971 and the “Kd K154A binding curve, normalized signal” value (BasC K154A mutant [1]; [L-Alanine] 100 mM) was 91.898 and 90.173 and 89.225. The “Kd K154A binding curve, normalized signal” value (BasC K154A mutant [1]; [L-Alanine] 150 mM) was 95.225 and 92.554 and 88.658, the “Kd K154A binding curve, normalized signal” value (BasC K154A mutant [1]; [L-Alanine] 200 mM) was 100.000 and the Kd (BasC K154A mutant [1]; individual experiments n=1, n=2, n=3, read-out: Apparent Kd K154A) was 55.6 mM and 58.9 mM and 69.7 mM. For the same compound, the Kd (BasC K154A mutant [1]; mean of n=3, read-out: Apparent Kd K154A, mean) was 61.4 mM, the Vmax (BasC K154A mutant [2]) was 0.32 ± 0.04 pmols L-alanine µg protein^−1 s^−1 and the “reduction of Vmax vs. wild-type” value (BasC K154A mutant [2]) was ~ 10 fold. For the same compound, the “reduction of extracellular apparent affinity vs. wild-type” value (BasC K154A mutant [2]) was ~ 10 fold, the “V/[L-Ala]” value (BasC K154A mutant [2]; extracellular side, L-alanine 100 μM) was 0.0007 and 0.0010 and 0.0009 and the “V/[L-Ala]” value (BasC K154A mutant [2]; extracellular side, L-alanine 500 μM) was 0.000458 and 0.000473 and 0.0005. For the same compound, the Km (BasC K154A mutant [2]; extracellular side, 5 µM Nb74, read-out: Km (o)) was 474 ± 42 µM and the Km (BasC K154A mutant [2]; intracellular side, 5 µM Nb74, read-out: Km (i)) was 2040 ± 370 µM.
